{
  "source": "BindingDB's records for doi:10.1016/j.ejmech.2018.04.030",
  "about": "(Chungnam National University, 2018)",
  "data": [
    {"test": "Inhibition of IL-5 in mouse Y16 cells assessed as reduction in cell proliferation after 48 hrs by WST-1 assay", "units": {"IC50": "µM"}, "values": [
      {"smiles": "O=c1c(Cc2ccc(O)cc2)coc2cccc(OCC3CCCCC3)c12", "IC50": 5},
      {"smiles": "COc1ccc(/C=C2\\Cc3cccc(OCc4ccc(OC)cc4)c3C2=O)cc1", "IC50": "> 30"},
      {"smiles": "O=C1c2c(cccc2OCCc2ccccc2)CC1Cc1ccccc1O", "note": "(stereo unspecified)", "IC50": "> 30"},
      {"smiles": "O=C1c2c(O)cccc2CC1Cc1ccc(O)cc1", "note": "(stereo unspecified)", "IC50": "> 30"},
      {"smiles": "O=C1c2c(cccc2OCCc2ccccc2)CC1Cc1cccc(O)c1", "note": "(stereo unspecified)", "IC50": 28},
      {"smiles": "COc1ccc(COc2cccc3c2C(=O)/C(=C/c2ccc(Cl)cc2)C3)cc1", "IC50": "> 30"},
      {"smiles": "COCOc1ccc(CC2Cc3cccc(OCC4CCCCC4)c3C2=O)cc1", "note": "(stereo unspecified)", "IC50": 17},
      {"smiles": "O=C1c2c(cccc2OCC2CCCCC2)CC1Cc1ccc(O)cc1", "note": "(stereo unspecified)", "IC50": 4},
      {"smiles": "O=C1c2c(cccc2OCC2CCCCC2)CC1Cc1ccccc1O", "note": "(stereo unspecified)", "IC50": "> 30"},
      {"smiles": "O=C1c2c(cccc2OCC2CCCCC2)CC1Cc1cccc(O)c1", "note": "(stereo unspecified)", "IC50": 6},
      {"smiles": "O=C1/C(=C/c2ccc(O)cc2)Cc2cccc(OCC3CCCCC3)c21", "IC50": "> 30"},
      {"smiles": "O=C1c2c(cccc2OCc2ccccc2)CC1Cc1ccc(O)cc1", "note": "(stereo unspecified)", "IC50": 21},
      {"smiles": "COc1ccc(/C=C2\\Cc3cccc(OCC4CCCCC4)c3C2=O)cc1", "IC50": "> 30"},
      {"smiles": "Cc1ccc(CC2Cc3cccc(OCC4CCCCC4)c3C2=O)cc1", "note": "(stereo unspecified)", "IC50": 24.5},
      {"smiles": "COc1ccc(/C=C2\\Cc3cccc(O)c3C2=O)cc1", "IC50": "> 30"},
      {"smiles": "COCOc1ccc(/C=C2\\Cc3cccc(OCC4CCCCC4)c3C2=O)cc1", "IC50": "> 30"},
      {"smiles": "COc1ccc(COc2cccc3c2C(=O)/C(=C/c2ccc(C)cc2)C3)cc1", "IC50": "> 30"},
      {"smiles": "O=C1/C(=C/c2ccc(O)cc2)Cc2cccc(OCc3ccc([N+](=O)[O-])cc3)c21", "IC50": "> 30"},
      {"smiles": "COc1ccc(COc2cccc3c2C(=O)/C(=C/c2ccccc2)C3)cc1", "IC50": "> 30"},
      {"smiles": "O=C1/C(=C/c2ccccc2)Cc2cccc(O)c21", "IC50": "> 30"},
      {"smiles": "COc1ccc(COc2cccc3c2C(=O)/C(=C/c2ccc(O)cc2)C3)cc1", "IC50": "> 30"},
      {"smiles": "COc1ccc(CC2Cc3cccc(OCC4CCCCC4)c3C2=O)cc1", "note": "(stereo unspecified)", "IC50": "> 30"},
      {"smiles": "O=C1c2c(cccc2OCCc2ccccc2)CC1Cc1ccc(O)cc1", "note": "(stereo unspecified)", "IC50": 26},
      {"smiles": "O=C1c2c(cccc2OCCC2CCCCC2)CC1Cc1ccc(O)cc1", "note": "(stereo unspecified)", "IC50": 18},
      {"smiles": "O=C1c2c(cccc2OCC2CCCCC2)CC1Cc1ccc(Cl)cc1", "note": "(stereo unspecified)", "IC50": 20.5},
      {"smiles": "O=C1/C(=C/c2ccc(O)cc2)Cc2cccc(O)c21", "IC50": "> 30"}
    ]}
  ]
}
